Laboratory results taken from paper PMC7864192 (Cancers, 2021).
Like-named read-outs stand apart in the source and are kept apart here.

Experiments:
[1] = system: GCPA113 T1.III patient-derived AGCT cell line; experiment: Cell viability drug screen (Cell Titer Glo 2.0, 72 h), mono- and combination therapy, GCPA113T1.III; conditions: Homo sapiens, read-out: IC50 in monotherapy
Protocol: (§1) Cell lines were seeded at a density of 500 cells/well in 40 uL in 384-well plates (Corning, NY, USA) with the Multidrop™ cell dispenser (Thermo Fischer Scientific, Waltham, MA, USA) and sealed with Breathe-Easy® membrane (Sigma-Aldrich, St. Louis, MO, USA) to prevent evaporation. […] For each cell line, three biological repeats and two technical repeats each were performed in order to ensure the validity of the drug screens. […] Subsequently, 11 drugs and 12 drug combinations were dispensed and all wells (excluding blanks and non-DMSO control wells) were normalized to 1% DMSO using the HP Tecan D300e Digital Dispenser (Hewlett-Packard, Palo Alto, CA, USA). […] Next, the plates were covered with the Breathe-Easy membrane and incubated. After 72 h, the Multidrop dispensed 15 uL per well of Cell Titer Glo 2.0 (Thermo Fischer Scientific, Waltham, MA, USA) and plates were incubated in the dark for 10 min. After incubation, luminescence excitation was assessed in the Spectramax reader (Molecular Devices, San Jose, CA, USA) (top read, luminescence excitation at 500 nm) and raw data were processed in Microsoft Excel to subtract background luminescence. The Z-factor, a mathematical method used to quantify the quality of a drug screen based on the calculation of the separation band between the values of the positive and negative controls, was utilized to assess the quality of drug screens [54]. Screens with a Z-factor value of >0.5 were used for further analysis.
(§2) Overall cell survival (in %) was plotted against the drug concentration range of each drug (in log10[μM]) using GraphPad Prism 8.3.1. Values that exceeded 100% survival (within +20% biological deviation) were normalized to 100% survival. Similarly, values below 0% cell survival (within −20% biological deviation) were normalized to 0% survival. Values exceeding this deviation were excluded. Dose–response curves were obtained using the model “log(inhibitor) vs. variable slope (normalized response)” to fit the dose–response curves and R^2 values were used to indicate how well the model fit the data (Supplementary Materials Figures S4 and S5). […] The IC50 values were calculated based on the Chou–Talalay method using Compusyn software [55]. For anti-hormonal treatment, mostly provided as maintenance therapy, we used IC10 values in addition to the IC50.
(§3) In addition to the 11 monotherapies, 12 drug combinations were tested (Table 3) simultaneously with the individual drug treatments in the same 384-well plate. […] Synergy was evaluated using the mass action law, a systematic analysis assessing dose–response dynamics in a cost-effective manner [56, 57]. The combination index (CI) was used to indicate antagonistic (CI > 1) additive (CI = 1) and synergistic (CI < 1) effects [55].

[2] = system: KGN cells (AGCT cell line); experiment: Cell viability drug screen (Cell Titer Glo 2.0, 72 h), mono- and combination therapy, KGN; conditions: Homo sapiens, read-out: IC50 in monotherapy
Protocol: KGN was cultured in conditions identical to AGCT-patient-derived cell lines.
(§4) Cell lines were seeded at a density of 500 cells/well in 40 uL in 384-well plates (Corning, NY, USA) with the Multidrop™ cell dispenser (Thermo Fischer Scientific, Waltham, MA, USA) and sealed with Breathe-Easy® membrane (Sigma-Aldrich, St. Louis, MO, USA) to prevent evaporation. The SVOG-3e line was seeded at 1000 cells/well due to contact-dependent growth requirements. For each cell line, three biological repeats and two technical repeats each were performed in order to ensure the validity of the drug screens. […] Subsequently, 11 drugs and 12 drug combinations were dispensed and all wells (excluding blanks and non-DMSO control wells) were normalized to 1% DMSO using the HP Tecan D300e Digital Dispenser (Hewlett-Packard, Palo Alto, CA, USA). All drugs were applied in linear concentration ranges (Table 2), including 16 data points to enable combination drug testing at constant ratios (Table 3). Next, the plates were covered with the Breathe-Easy membrane and incubated. After 72 h, the Multidrop dispensed 15 uL per well of Cell Titer Glo 2.0 (Thermo Fischer Scientific, Waltham, MA, USA) and plates were incubated in the dark for 10 min. After incubation, luminescence excitation was assessed in the Spectramax reader (Molecular Devices, San Jose, CA, USA) (top read, luminescence excitation at 500 nm) and raw data were processed in Microsoft Excel to subtract background luminescence. […] Screens with a Z-factor value of >0.5 were used for further analysis.
as §2

[3] = system: GCPA113 T1.II patient-derived AGCT cell line; experiment: Cell viability drug screen (Cell Titer Glo 2.0, 72 h), mono- and combination therapy, GCPA113T1.II; conditions: Homo sapiens, read-out: IC50 in monotherapy
Protocol: as §1, §2, §3

[4] = system: GCPA007 T2.I patient-derived AGCT cell line; experiment: Cell viability drug screen (Cell Titer Glo 2.0, 72 h), mono- and combination therapy, GCPA007T2.I; conditions: Homo sapiens, 72 h, read-out: IC50 in monotherapy
[5] = system: GCPA096 T1.XV patient-derived AGCT cell line; experiment: Cell viability drug screen (Cell Titer Glo 2.0, 72 h), mono- and combination therapy, GCPA096T1.XV; conditions: Homo sapiens, 72 h, read-out: IC50 in monotherapy
[6] = system: GCPA028 T1.II patient-derived AGCT cell line; experiment: Cell viability drug screen (Cell Titer Glo 2.0, 72 h), mono- and combination therapy, GCPA028; conditions: Homo sapiens, 72 h, read-out: IC50 in monotherapy
Protocol: as §4
(§5) Overall cell survival (in %) was plotted against the drug concentration range of each drug (in log10[μM]) using GraphPad Prism 8.3.1. Values that exceeded 100% survival (within +20% biological deviation) were normalized to 100% survival. Similarly, values below 0% cell survival (within −20% biological deviation) were normalized to 0% survival. Values exceeding this deviation were excluded. Dose–response curves were obtained using the model “log(inhibitor) vs. variable slope (normalized response)” to fit the dose–response curves and R^2 values were used to indicate how well the model fit the data (Supplementary Materials Figures S4 and S5). […] The maximum plasma concentration (Cmax) and the plasma concentration at steady state (Css) were used as toxicity thresholds. The Cmax was utilized for drugs in which short, high-dosage time courses are required, while the Css was used for maintenance therapy regimes such as anti-hormonal treatment. […] The IC50 values were calculated based on the Chou–Talalay method using Compusyn software [55]. For anti-hormonal treatment, mostly provided as maintenance therapy, we used IC10 values in addition to the IC50.
as §3

[7] = system: GCPA113 T1.I patient-derived AGCT cell line; experiment: Cell viability drug screen (Cell Titer Glo 2.0, 72 h), mono- and combination therapy, GCPA113T1.I; conditions: Homo sapiens, read-out: IC50 in monotherapy
[8] = system: GCPA096 T1.I patient-derived AGCT cell line; experiment: Cell viability drug screen (Cell Titer Glo 2.0, 72 h), mono- and combination therapy, GCPA096T1.I; conditions: Homo sapiens, read-out: IC50 in monotherapy
Protocol: as §1, §2, §3

[9] = system: GCPA096 T1.V patient-derived AGCT cell line; experiment: Cell viability drug screen (Cell Titer Glo 2.0, 72 h), mono- and combination therapy, GCPA096T1.V; conditions: Homo sapiens, 72 h, read-out: IC50 in monotherapy
Protocol: as §4, §5, §3

[10] = system: GCPA096 T1.II patient-derived AGCT cell line; experiment: Cell viability drug screen (Cell Titer Glo 2.0, 72 h), mono- and combination therapy, GCPA096T1.II; conditions: Homo sapiens, 72 h, read-out: IC50 in monotherapy
Protocol: as §4, §5, §3

[11] = system: GCPA007 T2.IV patient-derived AGCT cell line; experiment: Cell viability drug screen (Cell Titer Glo 2.0, 72 h), mono- and combination therapy, GCPA007T2.IV; conditions: Homo sapiens, read-out: IC50 in monotherapy
[12] = system: GCPA096 T1.XVI patient-derived AGCT cell line; experiment: Cell viability drug screen (Cell Titer Glo 2.0, 72 h), mono- and combination therapy, GCPA096T1.XVI; conditions: Homo sapiens, read-out: IC50 in monotherapy
Protocol: as §4, §5, §3

[13] = system: AGCT cell lines; experiment: Cell viability drug screen (72 h), summary over AGCT cell lines (12 patient-derived, with or without KGN); type: cell-based, human
Protocol: (§6) Cell lines were seeded at a density of 500 cells/well in 40 uL in 384-well plates (Corning, NY, USA) with the Multidrop™ cell dispenser (Thermo Fischer Scientific, Waltham, MA, USA) and sealed with Breathe-Easy® membrane (Sigma-Aldrich, St. Louis, MO, USA) to prevent evaporation. The SVOG-3e line was seeded at 1000 cells/well due to contact-dependent growth requirements. For each cell line, three biological repeats and two technical repeats each were performed in order to ensure the validity of the drug screens. […] Subsequently, 11 drugs and 12 drug combinations were dispensed and all wells (excluding blanks and non-DMSO control wells) were normalized to 1% DMSO using the HP Tecan D300e Digital Dispenser (Hewlett-Packard, Palo Alto, CA, USA). All drugs were applied in linear concentration ranges (Table 2), including 16 data points to enable combination drug testing at constant ratios (Table 3). Next, the plates were covered with the Breathe-Easy membrane and incubated. After 72 h, the Multidrop dispensed 15 uL per well of Cell Titer Glo 2.0 (Thermo Fischer Scientific, Waltham, MA, USA) and plates were incubated in the dark for 10 min. After incubation, luminescence excitation was assessed in the Spectramax reader (Molecular Devices, San Jose, CA, USA) (top read, luminescence excitation at 500 nm) and raw data were processed in Microsoft Excel to subtract background luminescence. The Z-factor, a mathematical method used to quantify the quality of a drug screen based on the calculation of the separation band between the values of the positive and negative controls, was utilized to assess the quality of drug screens [54]. Screens with a Z-factor value of >0.5 were used for further analysis.
as §5, §3

[14] = system: GCPA108 T3.IV patient-derived AGCT cell line; experiment: Cell viability drug screen (Cell Titer Glo 2.0, 72 h), mono- and combination therapy, GCPA108T3.IV; conditions: Homo sapiens, read-out: IC50 in monotherapy
Protocol: as §6, §5, §3

Structure (SMILES)	IC50 ([1]; 72 h) [µM]	IC50 ([2]; 72 h) [µM]	IC50 ([3]; 72 h) [µM]	IC50 [4] [µM]	IC50 [5] [µM]	IC50 [6] [µM]	IC50 ([7]; 72 h) [µM]	IC50 ([8]; 72 h) [µM]	IC50 [9] [µM]	IC50 [10] [µM]	IC50 ([11]; 72 h) [µM]	IC50 ([12]; 72 h) [µM]	IC50 ([14]; 72 h) [µM]	other results
N#Cc1ccc(C(c2ccc(C#N)cc2)n2cncn2)cc1 [Letrozole]	> 50	35.4	> 50	> 50	> 50	> 50	> 50	> 50	> 50	> 50	> 50	> 50	–	–
CC(=O)O[C@H]1C(=O)[C@@]2(C)[C@H]([C@H](OC(=O)c3ccccc3)[C@]3(O)C[C@H](OC(=O)[C@H](O)[C@@H](NC(=O)c4ccccc4)c4ccccc4)C(C)=C1C3(C)C)[C@]1(OC(C)=O)CO[C@@H]1C[C@@H]2O [Paclitaxel]	> 50	> 50	48.3	> 50	> 50	–	> 50	> 50	> 50	> 50	> 50	> 50	> 50	IC50 ([13]; Homo sapiens, median over AGCT cell lines, read-out: median IC50 in monotherapy): 93.3 µM; IC50 [1]: > 50 µM; IC50 [2]: > 50 µM; IC50 [3]: 48.3 µM; IC50 [7]: > 50 µM; IC50 [8]: > 50 µM; IC50 [14]: > 50 µM; IC50 [11]: > 50 µM; IC50 [12]: > 50 µM
CC/C(=C(\c1ccccc1)c1ccc(OCCN(C)C)cc1)c1ccccc1 [Tamoxifen]	–	–	–	–	–	–	–	–	–	–	–	–	–	range IC10 (concentration needed to obtain 10% cell death) ([13]; range over AGCT cell lines, monotherapy): 6.04 to 15.03 µM
CC(=O)[C@@]1(O)CC[C@H]2[C@@H]3CCC4=CC(=O)CCC4=C3[C@@H](c3ccc(N(C)C)cc3)C[C@@]21C [Ulipristal]	> 50	43.7	> 50	> 50	> 50	49.9	> 50	> 50	> 50	> 50	> 50	> 50	> 50	–
